Test results taken from PubChem BioAssay AID2060625 (Molecular Pharmacology Branch, DTP, NCI, 2025).
Several values for one entry are separate records, joined by “and”; a condition that tells them apart may be missing. Equal values may be shown once.

Tested on: 186277-243-T-J2-PDC spheroids with HUVEC/MSC, viability
Assay: Anticancer human tumor 186277-243-T-J2-PDC patient-derived colon adenocarcinoma cell line growth inhibition [CLK]
Settings: for viability, T/C: stronger effect = lower value
Excerpt: A high-throughput screen of multi-cell type tumor spheroids was designed to identify active combinations of […] and targeted small molecules. Complex spheroids include a stromal component modeled by human endothelial cells (HUVEC) and fibroblasts modeled by human mesenchymal stem cells (MSCs). The concentration ranges selected for each drug and investigational agent were based upon clinically achievable concentrations if the clinical Cmax of the agent was known.
Compounds. The drugs and investigational agents: cirtuvivint (SM08502; NSC835563), CC-671 (NSC850746), vemurafenib (NSC761431), tapotoclax (NSC804041), sotorasib (NSC818433), adagrasib (NSC831453), MRTX-1133 (NSC836407), BAY2416964 (NSC825713), copanlisib (NSC816437), inavolisib (NSC800729), abemaciclib (NSC768073), osimertinib (NSC779217), entinostat (NSC756642), eltanexor (KPT-8602, NSC794443), venetoclax (NSC766270), ceralasertib (NSC777638), bortezomib (NSC756655), olaparib (NSC753686), talazoparib (NSC767125), alisertib (NSC759677), peposertib (NSC802822), gemcitabine (NSC613327), 5-fluorouracil (NSC19893), SN-38 (NSC673596), oxaliplatin (NSC266046), paclitaxel (NSC125973), and doxorubicin (NSC123127), were obtained from the National Cancer Institute (NCI) Developmental Therapeutics Program Chemical Repository. The FDA-approved anticancer drug set is available from the Developmental Therapeutics Program at https://dtp.cancer.gov/organization/dscb/obtaining/available plates.htm. […] The stock solutions were prepared in dimethyl sulfoxide (DMSO, Sigma-Aldrich, St. Louis, MO, cat. D2650), except for the platinum complexes which were prepared in saline (Quality Biological, Gaithersburg, MD, cat. 114-055-101), at 800-fold the tested concentration and stored at -70 degrees C prior to their use. All drugs and investigational agents were tested over a range starting from a high concentration at or near the clinical Cmax and decreasing in half-log increments. If the clinical Cmax for an agent had not been determined, the highest concentration tested was 10 microM.
Cell Culture. All cells were maintained in an incubator at 37 degrees C and 5% CO2 with 95% humidity. The PDC lines were cultured according to standard operating procedures established by the NCI PDMR. Briefly, all PDCs were thawed and cultured in Matrigel-coated flasks prepared with a working solution of 1X Ham's F-12 nutrient mix, without supplementation (Invitrogen, Waltham, MA, cat. 11765054), 100 U/mL penicillin-streptomycin (Invitrogen, cat. 15140122), and 2.5% Matrigel (Corning Inc., Corning, NY, cat. 354248) for the first three passages. The 947758-054-R-J2-PDC line was cultured in 6B/Colon 1A media, which includes advanced DMEM/F-12 (Thermo Fisher Scientific, cat. 12634028), 10 mM HEPES (Thermo Fisher Scientific, cat. 15630080), 1X GlutaMAX supplement (Thermo Fisher Scientific, cat. 35050061), 0.1 mg/mL primocin (InvivoGen, cat. ant-pm-2), 10% defined fetal bovine serum, heat inactivated (HyClone Laboratories Inc., cat. SH30070.03HI), 1.25 mM N-Acetyl-L-cysteine (Sigma-Aldrich, cat. A9165), 10 mM nicotinamide (Sigma-Aldrich, cat. N0636), 1X B-27 supplement (Thermo Fisher Scientific, cat. 17504044), 1X N-2 supplement (Thermo Fisher Scientific, cat. 17502048), and 10 microM Y-27632 dihydrochloride (Tocris Bioscience, cat. 1254). The 876862-298-R-J1-PDC was cultured in 6E media, which includes all 6B/Colon 1A media components plus 50% L-WRN conditioned media (ATCC, cat. CRL-3276), 50 ng/mL recombinant human EGF recombinant protein (hEGF; Thermo Fisher Scientific, cat. PHG0311), 10 ng/mL recombinant human fibroblast growth factor 10 (hGFG-10; PeproTech, cat. 100-26), 1 ng/mL recombinant human fibroblast growth factor 2 (hFGF-2; PeproTech, cat. 100-18B), and 1 µM prostaglandin E2 (PGE2; Tocris, cat. 2296). The 227483-062-R1-J1-PDC line was cultured in Panc media, containing all 6E components except hFGF-2, with the addition of 500 nM SB-431542 (Selleckchem, cat. S1067) and 10 nM gastrin (Tocris, cat. 3006). […]

[1] = curve of first compound, second compound 0.0316 µM
[2] = curve of first compound, second compound 0.1 µM
[3] = curve of first compound, second compound 0.316 µM
[4] = curve of first compound, second compound 1 µM
[5] = curve of first compound, second compound 3.16 µM
[6] = curve of first compound, second compound 10 µM
[7] = second compound 0.0316 µM, first compound 0.0316 µM
[8] = second compound 0.0316 µM, first compound 0.1 µM
[9] = second compound 0.0316 µM, first compound 0.316 µM
[10] = second compound 0.0316 µM, first compound 1 µM
[11] = second compound 0.0316 µM, first compound 3.16 µM
[12] = second compound 0.0316 µM, first compound 10 µM
[13] = second compound 0.1 µM, first compound 0.0316 µM
[14] = second compound 0.1 µM, first compound 0.1 µM
[15] = second compound 0.1 µM, first compound 0.316 µM
[16] = second compound 0.1 µM, first compound 1 µM
[17] = second compound 0.1 µM, first compound 3.16 µM
[18] = second compound 0.1 µM, first compound 10 µM
[19] = second compound 0.316 µM, first compound 0.0316 µM
[20] = second compound 0.316 µM, first compound 0.1 µM
[21] = second compound 0.316 µM, first compound 0.316 µM
[22] = second compound 0.316 µM, first compound 1 µM
[23] = second compound 0.316 µM, first compound 3.16 µM
[24] = second compound 0.316 µM, first compound 10 µM
[25] = second compound 1 µM, first compound 0.0316 µM
[26] = second compound 1 µM, first compound 0.1 µM
[27] = second compound 1 µM, first compound 0.316 µM
[28] = second compound 1 µM, first compound 1 µM
[29] = second compound 1 µM, first compound 3.16 µM
[30] = second compound 1 µM, first compound 10 µM
[31] = second compound 3.16 µM, first compound 0.0316 µM
[32] = second compound 3.16 µM, first compound 0.1 µM
[33] = second compound 3.16 µM, first compound 0.316 µM
[34] = second compound 3.16 µM, first compound 1 µM
[35] = second compound 3.16 µM, first compound 3.16 µM
[36] = second compound 3.16 µM, first compound 10 µM
[37] = second compound 10 µM, first compound 0.0316 µM
[38] = second compound 10 µM, first compound 0.1 µM
[39] = second compound 10 µM, first compound 0.316 µM
[40] = second compound 10 µM, first compound 1 µM
[41] = second compound 10 µM, first compound 3.16 µM
[42] = second compound 10 µM, first compound 10 µM
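Further: compound exposure lasted seven days before readout.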
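Wherever viability, T/C is given: 100% = DMSO vehicle control wells.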

In the case of `COC1C=CCC(C)C(C)S(=O)(=O)NC(=O)c2ccc3c(c2)N(CC2CCC21)CC1(CCCc2cc(Cl)ccc21)CO3` (stereo unspecified), the viability, T/C (compound 0.0316 µM) is reported as 83.5% and 117%, the viability, T/C (compound 0.1 µM) is reported as 90% and 103% and the viability, T/C (compound 0.316 µM) is reported as 88.2% and 101%. For the same compound, the viability, T/C (compound 1 µM) was 85.8% and 84.1%, the viability, T/C (compound 3.16 µM) was 82.9% and 69.2% and the viability, T/C (compound 10 µM) was 3.82% and 5.57%. The IC50 (curve of compound) was 5110 nM and 4150 nM.
`CN1CCN(c2cc(C(=O)Nc3cc4cc(-c5cnn(C)c5)ccc4cn3)ccn2)CC1` was tested, and the viability, T/C (compound 0.316 µM) was 23.7% [middle of 11 runs], the viability, T/C (compound 1 µM) was 0.99% [middle of 10 runs] and the viability, T/C (compound 3.16 µM) was 1.22% [middle of 11 runs]. The viability, T/C (compound 10 µM) was 1.7% [middle of 11 runs] and the IC50 (compound alone, run of 08/14/2023) was 192 nM [middle of 11 runs].
`C=CC(=O)N1CCN(c2nc(=O)n(-c3c(C)ccnc3C(C)C)c3nc(-c4c(O)cccc4F)c(F)cc23)C(C)C1` (stereo unspecified) + CN1CCN(c2cc(C(=O)Nc3cc4cc(-c5cnn(C)c5)ccc4cn3)ccn2)CC1 was tested, and the IC50 [1] was > 10000 nM, the IC50 [2] was > 10000 nM and the IC50 [3] was < 31.6 nM. For the same compound, the IC50 [4] was < 31.6 nM, the IC50 [5] was < 31.6 nM and the IC50 [6] was < 31.6 nM. The viability, T/C [7] was 97.2%, the viability, T/C [8] was 108% and the viability, T/C [9] was 102%. For the same compound, the viability, T/C [10] was 98.8%, the viability, T/C [11] was 102% and the viability, T/C [12] was 86.6%. For the same compound, the viability, T/C [13] was 102%, the viability, T/C [14] was 81% and the viability, T/C [15] was 90.5%. For the same compound, the viability, T/C [16] was 84.1%, the viability, T/C [17] was 86.2% and the viability, T/C [18] was 72.4%. It also gave a viability, T/C [19] of 29.7%, a viability, T/C [20] of 28.8% and a viability, T/C [21] of 29.5%. For the same compound, the viability, T/C [22] was 24.8%, the viability, T/C [23] was 30.8% and the viability, T/C [24] was 11%. It also gave a viability, T/C [25] of 0.72%, a viability, T/C [26] of 1.4% and a viability, T/C [27] of 0.59%. The viability, T/C [28] was 1.74%, the viability, T/C [29] was 1.4% and the viability, T/C [30] was 1.65%. It also gave a viability, T/C [31] of 0.98%, a viability, T/C [32] of 1.19% and a viability, T/C [33] of 1.22%. The viability, T/C [34] was 2.38%, the viability, T/C [35] was 2.84% and the viability, T/C [36] was 1.94%. It also gave a viability, T/C [37] of 0.63%, a viability, T/C [38] of 0.71% and a viability, T/C [39] of 1.36%. It also gave a viability, T/C [40] of 1.03%, a viability, T/C [41] of 2.23% and a viability, T/C [42] of 1.12%.
`COC1C=CCC(C)C(C)S(=O)(=O)NC(=O)c2ccc3c(c2)N(CC2CCC21)CC1(CCCc2cc(Cl)ccc21)CO3` (stereo unspecified) + CNC(=O)c1ccc(Nc2nc(OC3CCCC3)c3c(-c4ccc5nc(C)oc5c4)c[nH]c3n2)c(OC)c1 was tested, and the IC50 [1] was 3550 nM, the IC50 [2] was 90.1 nM and the IC50 [3] was < 31.6 nM. The IC50 [4] was < 31.6 nM, the IC50 [5] was < 31.6 nM and the IC50 [6] was < 31.6 nM. For the same compound, the viability, T/C [7] was 101%, the viability, T/C [8] was 101% and the viability, T/C [9] was 103%. For the same compound, the viability, T/C [10] was 83%, the viability, T/C [11] was 55.9% and the viability, T/C [12] was 4.26%. The viability, T/C [13] was 64%, the viability, T/C [14] was 50.2% and the viability, T/C [15] was 29.8%. For the same compound, the viability, T/C [16] was 19.8%, the viability, T/C [17] was 9.64% and the viability, T/C [18] was 3.08%. For the same compound, the viability, T/C [19] was 39.9%, the viability, T/C [20] was 32% and the viability, T/C [21] was 19.9%. It also gave a viability, T/C [22] of 12.5%, a viability, T/C [23] of 6.42% and a viability, T/C [24] of 2.78%. The viability, T/C [25] was 30.1%, the viability, T/C [26] was 23.2% and the viability, T/C [27] was 14.7%. For the same compound, the viability, T/C [28] was 10.7%, the viability, T/C [29] was 5.35% and the viability, T/C [30] was 4.55%. The viability, T/C [31] was 31.5%, the viability, T/C [32] was 27% and the viability, T/C [33] was 17.6%. For the same compound, the viability, T/C [34] was 10.1%, the viability, T/C [35] was 6.79% and the viability, T/C [36] was 2.91%. For the same compound, the viability, T/C [37] was 36.1%, the viability, T/C [38] was 25.4% and the viability, T/C [39] was 20.5%. It also gave a viability, T/C [40] of 11.9%, a viability, T/C [41] of 5.93% and a viability, T/C [42] of 2.8%.
